Data: PMC12134470 (International Journal of Nanomedicine, 2025)

How the values were obtained:
[1] = cited from earlier work
MDA-MB-468 = assay: Antiproliferative activity, SRB assay; format: cell-based, human; details: 72 hours of exposure; tested 5–625 μM

CC(C)Cc1ccc([C@H](C)C(=O)O)cc1 [DXI, dexibuprofen]
Water solubility [1]: 0.0684 mg/mL
IC50 MDA-MB-468 (MDA-MB-468): did not express any cytotoxic effect
